Counter-ions that a name gives are not always drawn.
Key:
[1] = target: MELK (Homo sapiens, UniProt Q14680); assay: Kinase assay: MELK activity, phosphorylation of FITC-labeled histone H3 peptide measured by IMAP fluorescence polarization; type: biochemical; conditions: 50 micro-M ATP, FITC-labeled histone H3 peptide substrate, IMAP fluorescence polarization; read-out: IC50 (μM) (kinase assay)
Method in brief: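 Substrate is FITC-labeled histone H3 peptide. Compounds come from a 12.5 mM DMSO stock, diluted so assay DMSO is 1%. The stop step adds threefold-volume progressive binding solution, followed by 0.5 h at room temperature and an FP read.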

[2] = system: BT-549 cells; assay: Cell-based assay: anti-proliferative activity, Cell Counting Kit-8, 72 hours (BT-549); conditions: Homo sapiens, BT-549, 72 h, BT549 cells, MELK-expressing; Cell Counting Kit-8 at 72 hours
Method: To evaluate the expression status of MELK in several cell lines, western blot analysis was performed using crude cell lysate collected from those cells. Anti-MELK antibody (clone 31, BD Biosciences) was used to visualize the expression.
Active candidate inhibitors against MELK were evaluated for their target-specific cytotoxicity using T47D, A549, BT-549, and HT-1197 cells was used for negative control. 100 micro-L of cell suspension was seeded onto 96-well microtiter plate (ViewPlate-96FTC, PerkinElmer). The initial cell concentration of T47D, A549, BT-549, and HT-1197 were 3,000 cells/well, 2,000 cells/well and 2,500 cells/well, respectively. Cellular growth was determined using Cell Counting Kit-8 (DOJINDO) at 72 hours after the exposure of the candidate inhibitors. […] Accurate IC50 values were calculated as described previously.

[3] = system: T47D cells; assay: Cell-based assay: anti-proliferative activity, Cell Counting Kit-8, 72 hours (T47D); conditions: Homo sapiens, T47D, 72 h, MELK-expressing, Cell Counting Kit-8 at 72 hours
Method in brief: (§1)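 IC50 values come from CCK-8 growth measurements taken 72 hours post-treatment of plated cells with test compounds. Expression of MELK across the panel was assessed through immunoblot of unfractionated lysates.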

[4] = system: A549 cells; assay: Cell-based assay: anti-proliferative activity, Cell Counting Kit-8, 72 hours (A549); conditions: Homo sapiens, A549, 72 h, MELK-expressing, Cell Counting Kit-8 at 72 hours
Method in brief: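 A549 cells seeded in 96-well plates and exposed to candidate inhibitors for 72 hours. Growth measured with Cell Counting Kit-8; IC50 values calculated from the dose response.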

[5] = system: HT-1197 cells; assay: Cell-based assay: anti-proliferative activity, Cell Counting Kit-8, 72 hours (HT-1197, negative control without MELK expression); conditions: Homo sapiens, HT1197, 72 h, HT1197 cells, no MELK expression (negative control); Cell Counting Kit-8 at 72 hours
Method in brief: as §1

Chain of MELK (Q14680 whole entry, looked up): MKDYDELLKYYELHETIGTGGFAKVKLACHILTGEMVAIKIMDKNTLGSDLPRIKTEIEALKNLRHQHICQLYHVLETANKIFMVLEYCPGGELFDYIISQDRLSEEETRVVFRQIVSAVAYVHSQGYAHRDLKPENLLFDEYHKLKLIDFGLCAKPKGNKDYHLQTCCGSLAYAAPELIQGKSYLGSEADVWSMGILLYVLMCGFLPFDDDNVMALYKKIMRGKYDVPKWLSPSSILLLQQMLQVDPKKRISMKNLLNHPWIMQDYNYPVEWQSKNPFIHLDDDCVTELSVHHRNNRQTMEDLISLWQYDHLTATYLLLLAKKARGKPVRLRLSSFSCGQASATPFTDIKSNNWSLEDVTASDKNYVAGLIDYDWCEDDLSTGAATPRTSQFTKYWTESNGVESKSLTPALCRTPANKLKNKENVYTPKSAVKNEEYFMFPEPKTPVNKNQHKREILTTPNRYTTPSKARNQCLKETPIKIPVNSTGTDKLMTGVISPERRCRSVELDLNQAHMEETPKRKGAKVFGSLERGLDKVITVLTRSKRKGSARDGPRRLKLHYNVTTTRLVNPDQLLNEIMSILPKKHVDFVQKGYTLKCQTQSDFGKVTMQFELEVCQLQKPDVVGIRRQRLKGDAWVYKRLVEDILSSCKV

| SMILES | IC50 [1] | IC50 [2] | IC50 [3] | IC50 [4] | IC50 [5] |
| --- | --- | --- | --- | --- | --- |
| COc1cc(-c2cc3c(N[C@H]4CC[C@H](N)CC4)c(C(=O)C4CC4)cnc3cc2F)cc(Cl)c1O [Example 284, {4-[trans-4-aminocyclohexylamino]-6-(3-chloro-4-hydroxy-5-methoxyphenyl)-7-fluoroquinolin-3-yl}(cyclopropyl)methanone] | 0.013 µM | 1.7 µM | 0.62 µM | 0.49 µM | 2.2 µM |
| N[C@H]1CC[C@H](Nc2c(C(=O)C3CC3)cnc3ccc(-c4cc(F)c(O)c(F)c4)cc23)CC1 [Example 156, {4-[trans-4-Aminocyclohexylamino]-6-(3,5-difluoro-4-hydroxyphenyl)quinolin-3-yl}(cyclopropyl)methanone] | 0.023 µM | 0.16 µM | 0.095 µM | 0.88 µM | 3.1 µM |
| COc1cc(-c2ccc3ncc(C(=O)C4CC4)c(N4CCC(CN5CCOCC5)CC4)c3c2)cc(Cl)c1O [Example 334, {6-(3-Chloro-4-hydroxy-5-methoxyphenyl)-4-[4-(morpholinomethyl)piperidin-1-yl]quinolin-3-yl}(cyclopropyl)methanone] | 0.0081 µM | 0.77 µM | 0.55 µM | 0.41 µM | 4.8 µM |
| CN(C)Cc1ccc(Nc2c(C(=O)C3CC3)cnc3ccc(-c4cc(Cl)c(O)c(Cl)c4)cc23)cc1 [Example 345, Cyclopropyl[6-(3,5-dichloro-4-hydroxyphenyl)-4-{4-[(dimethylamino)methyl]phenylamino}quinolin-3-yl]methanone] | 0.0032 µM | 0.1 µM | 0.054 µM | 0.051 µM | 0.67 µM |
| COc1cc(-c2ccc3ncc(C(=O)C4CC4)c(N4CCC5(CCNC5)CC4)c3c2)cc(Cl)c1O [Example 155, [6-(3-Chloro-4-hydroxy-5-methoxyphenyl)-4-(2,8-diazaspiro[4,5]decan-8-yl)quinolin-3-yl](cyclopropyl)methanone] | 0.004 µM | 0.79 µM | 0.43 µM | 0.68 µM | 2.4 µM |
| COc1cc(-c2ccc3ncc(C(=O)CC(C)C)c(N[C@H]4CC[C@H](N(C)C)CC4)c3c2)cc(Cl)c1O [Example 348, 1-{6-(3-Chloro-4-hydroxy-5-methoxyphenyl)-4-[trans-4-(dimethylamino)cyclohexylamino]quinolin-3-yl}-3-methylbutan-1-one] | 0.0043 µM | 0.93 µM | 0.41 µM | 0.47 µM | 3 µM |
| COc1cc(-c2ccc3ncc(C(C)=O)c(N4CCC(CN5CCCC5)CC4)c3c2)cc(Cl)c1O [Example 321, 1-{6-(3-Chloro-4-hydroxy-5-methoxyphenyl)-4-[4-(pyrrolidin-1-ylmethyl)piperidin-1-yl]quinolin-3-yl}ethanone] | 0.0027 µM | 0.29 µM | 0.19 µM | 0.18 µM | 5.1 µM |
| COc1cc(-c2ccc3ncc(C(=O)C4CC4)c(N4CCC(C(C)N(C)C)CC4)c3c2)ccc1O (stereo not drawn) [Example 187, Cyclopropyl(4-{4-[1-(dimethylamino)ethyl]piperidin-1-yl}-6-(4-hydroxy-3-methoxyphenyl)quinolin-3-yl)methanone] | 0.0034 µM | 2 µM | 0.44 µM | 0.65 µM | 2.2 µM |
| CCN(CC)C1CCC(Nc2c(C(C)=O)cnc3ccc(-c4ccc(O)c(Cl)c4)cc23)CC1 (stereo not drawn) [Example 335, 1-{6-(3-Chloro-4-hydroxyphenyl)-4-[4-(diethylamino)cyclohexylamino]quinolin-3-yl}ethanone] | 0.021 µM | 0.65 µM | 0.1 µM | 0.29 µM | 1.2 µM |
| CN1CCC(CNc2c(C(=O)C3CC3)cnc3ccc(-c4cc(F)c(O)c(Cl)c4)cc23)CC1 [Example 270, {6-(3-Chloro-5-fluoro-4-hydroxyphenyl)-4-[(1-methylpiperidin-4-yl)methylamino]quinolin-3-yl}(cyclopropyl)methanone] | 0.021 µM | 1.1 µM | 0.51 µM | 0.69 µM | 2.9 µM |
| O=C(c1cnc2ccc(-c3ccc(O)c(Cl)c3)cc2c1N[C@H]1CC[C@H](N2CCCC2)CC1)C1CC1 [Example 342, {6-(3-Chloro-4-hydroxyphenyl)-4-[trans-4-(pyrrolidin-1-yl)cyclohexylamino]quinolin-3-yl}(cyclopropyl)methanone] | 0.0046 µM | 0.68 µM | 0.25 µM | 0.27 µM | 1.8 µM |
| COc1cc(-c2ccc3ncc(C(=O)C4CC4)c(NC4CCN(C)CC4)c3c2)ccc1O [Example 177, Cyclopropyl[6-(4-hydroxy-3-methoxyphenyl)-4-(1-methylpiperidin-4-ylamino)quinolin-3-yl]methanone] | 0.026 µM | 2.6 µM | 0.88 µM | 0.83 µM | 2.3 µM |
| CC(=O)c1cnc2ccc(-c3cc(Cl)c(O)c(Cl)c3)cc2c1N[C@H]1CC[C@H](N)CC1 [Example 256, 1-{4-[trans-4-Aminocyclohexylamino]-6-(3,5-dichloro-4-hydroxyphenyl)quinolin-3-yl}ethanone] | 0.0041 µM | 0.31 µM | 0.064 µM | 0.44 µM | 100 µM |
| CN(C)[C@H]1CC[C@H](CNc2c(C(=O)C3CC3)cnc3ccc(-c4cc(Cl)c(O)c(Cl)c4)cc23)CC1 [Example 325, Cyclopropyl[6-(3,5-dichloro-4-hydroxyphenyl)-4-{[trans-4-(dimethylamino)cyclohexyl]methylamino}quinolin-3-yl]methanone] | 0.011 µM | 1.9 µM | 0.78 µM | 0.62 µM | 10 µM |
| COc1cc(-c2ccc3ncc(C(=O)C4CC4)c(N4CCC(C(C)N(C)C)CC4)c3c2)cc(Cl)c1O (stereo not drawn) [Example 250, [6-(3-Chloro-4-hydroxy-5-methoxyphenyl)-4-{4-[1-(dimethylamino)ethyl]piperidin-1-yl}quinolin-3-yl](cyclopropyl)methanone] | 0.0013 µM | 0.61 µM | 0.16 µM | 0.11 µM | 1.7 µM |
| CN(C)[C@H]1CC[C@H](Nc2c(C(=O)C3CC3)cnc3ccc(-c4cc(Cl)c(O)c(Cl)c4)cc23)CC1 [Example 263, Cyclopropyl{6-(3,5-dichloro-4-hydroxyphenyl)-4-[trans-4-(dimethylamino)cyclohexylamino]quinolin-3-yl}methanone] | 0.0017 µM | 0.41 µM | 0.13 µM | 0.2 µM | 1.2 µM |
| COc1cc(-c2ccc3ncc(C(=O)C4CC4)c(N[C@H]4CC[C@H](CN(C)C)CC4)c3c2)cc(Cl)c1O [Example 316] | 0.011 µM | 1.3 µM | 0.5 µM | 0.32 µM | 6.3 µM |
| COc1cc(-c2ccc3ncc(C(=O)C4CC4)c(N4CCC(CN5CCCC5)CC4)c3c2)cc(F)c1O [Example 307, Cyclopropyl{6-(3-fluoro-4-hydroxy-5-methoxyphenyl)-4-[4-(pyrrolidin-1-ylmethyl)piperidin-1-yl]quinolin-3-yl}methanone] | 0.0041 µM | 1.2 µM | 0.79 µM | 0.53 µM | 3 µM |
| CC(C)C(=O)c1cnc2ccc(-c3ccc(O)c(Cl)c3)cc2c1N1CCC(CN2CCCC2)CC1 [Example 318, 1-{6-(3-Chloro-4-hydroxyphenyl)-4-[4-(pyrrolidin-1-ylmethyl)piperidin-1-yl]quinolin-3-yl}-2-methylpropan-1-one] | 0.02 µM | 1.8 µM | 0.92 µM | 0.87 µM | 1.4 µM |
| COc1cc(-c2ccc3ncc(C(=O)CC(C)C)c(N[C@H]4CC[C@H](N)CC4)c3c2)cc(Cl)c1O [Example 262, dihydrochloride] | 0.005 µM | 0.91 µM | 0.13 µM | 0.36 µM | 2.2 µM |
| O=C(c1cnc2ccc(-c3ccc(O)c(Cl)c3)cc2c1N1CCC(CN2CCOCC2)CC1)C1CC1 [Example 332, {6-(3-Chloro-4-hydroxyphenyl)-4-[4-(morpholinomethyl)piperidin-1-yl]quinolin-3-yl}(cyclopropyl)methanone] | 0.035 µM | 1.5 µM | 0.67 µM | 0.55 µM | 10 µM |

From patent US9120749B2, “Quinoline derivatives and MELK inhibitors containing the same” (ONCOTHERAPY SCIENCE, INC., priority 2010, dated 2015)
